Data reported in paper PMC9246256, “Structure-based optimization of type III indoleamine 2,3-dioxygenase 1 (IDO1) inhibitors” (Journal of Enzyme Inhibition and Medicinal Chemistry, 2022).
Where “and” joins values, the source holds several entries; their conditions need not be identical. Equal values may be shown once.

How the values were obtained:
hIDO1 = molecular target: T1, hIDO1 (Homo sapiens, UniProt P14902); experiment: Cellular hIDO1 inhibition (kynurenine production) in transiently transfected HEK 293 T cells; assay type: cell-based
T1 construct: The full ORF of hIDO1 was cloned into the mammalian expression vector pcDNA6/myc-His; myc-His (vector-encoded); host or cells: HEK 293 T
Method: (§1) We tested the cellular hIDO1 inhibitory activity and toxicity of 30 active compounds at a single concentration (Figure 6 and Table 8). As some of the aniline derivatives reacted with Ehrlich’s reagent (p-dimethylaminobenzaldehyde, p-DMAB) used to quantify kynurenine, the kynurenine content of these samples was determined by HPLC. To be able to detect also weak inhibition, compounds were tested at the high concentration of 200 µM (Figure 6A and B, filled bars), except for less soluble compounds (52, 148, 149 and 153), which were tested at a concentration of 50 µM (Figure 6A and B, empty bars).
The cDNA encoding hIDO1 (NCBI, NM 0021464.3) was purchased from Origene as pCMV6-Entry vector (RC206592). The full ORF of hIDO1 was cloned into the mammalian expression vector pcDNA6/myc-His from Invitrogen. Human embryonic kidney 293 T (HEK 293 T) cells were transiently transfected with the plasmid construct encoding hIDO1. A 75 cm^2 flask containing HEK 293 T cells at a confluency of 70% was transfected with jetPEI DNA transfection reagent (Polyplus-transfection), according to manufacturer’s protocol. A total of 20 µg of pcDNA-IDO1 along with 5 µg of pcDNA-GFP plasmid were used for the transfection; GFP was used to evaluate transfection efficiency prior to the cellular assays. 16–18 h post-transfection the 293 T cells were detached with trypsin, centrifuged, and re-suspended in 25 mL of DMEM medium without phenol red, supplemented with penicillin and streptomycin, 10% foetal bovine serum and 1 mM pyruvate (Gibco). Subsequently, 100 µL of cells were distributed to each well of two 96-well round-bottom plates that had been pre-loaded with 100 µL DMEM and the small organic test molecule in DMSO (for a final DMSO concentration of 2%). DMEM medium contains 78 µM L-Trp and was supplemented with 500 µM of L-Trp. Cells transfected with hIDO1 were incubated for 7 h at 37 °C in a CO2 incubator. The reaction was stopped in its linear phase by adding trichloroacetic acid (TCA) to the medium at a final concentration of 4%. Plates were centrifuged for 15 min at 4,000 rpm. 100 µL of supernatant was added to 100 µL of 2% (w/v) DMAB in glacial acetic acid. After 10 min the absorbance was measured at a wavelength of 480 nm to detect kynurenine formation. Alternatively, kynurenine content was determined by HPLC as done for the enzymatic assay.

HEK 293 T cells = experiment: Cell viability / cellular toxicity (DAPI staining, cytometry); assay type: cell-based, human; conditions: compound 200 µM, 7 h
Method: as §1
Following DMSO (negative control) or inhibitor treatments, apoptotic cells were detected by 4′,6-diamidino-2-phenylindole (DAPI) staining. Briefly, after 7 h of incubation, cells were washed with PBS, resuspended in PBS with 1 µg/mL DAPI and immediately analysed using a BD LSR II cytometer. A 405 nm laser with 450/50 nm bandpass filter was used to collect data.

[1] = molecular target: T2, purified recombinant IDO1 (Homo sapiens, UniProt P14902); experiment: Enzymatic IDO1 inhibition assay (ascorbate/methylene blue reduction system, HPLC detection of kynurenine); assay type: biochemical; conditions: for IC50: enzymatic, L-Trp 100 µM, 0.01% Triton X-100, 5% DMSO, 20 min at room temperature, pH 6.5, duplicates, read-out: IC50 [ μ M] (SD); for LE [kcal/mol/HA]: ligand efficiency, LE = -RT log(IC50)/number of heavy atoms, from enzymatic IC50
T2 construct: Full-length human IDO1 gene was cloned into the pET-28a vector; inferred from pET-28a vector and HisTrap purification; made in house; host or cells: E. coli Rosetta (DE3)
T2 sequence (P14902 whole entry): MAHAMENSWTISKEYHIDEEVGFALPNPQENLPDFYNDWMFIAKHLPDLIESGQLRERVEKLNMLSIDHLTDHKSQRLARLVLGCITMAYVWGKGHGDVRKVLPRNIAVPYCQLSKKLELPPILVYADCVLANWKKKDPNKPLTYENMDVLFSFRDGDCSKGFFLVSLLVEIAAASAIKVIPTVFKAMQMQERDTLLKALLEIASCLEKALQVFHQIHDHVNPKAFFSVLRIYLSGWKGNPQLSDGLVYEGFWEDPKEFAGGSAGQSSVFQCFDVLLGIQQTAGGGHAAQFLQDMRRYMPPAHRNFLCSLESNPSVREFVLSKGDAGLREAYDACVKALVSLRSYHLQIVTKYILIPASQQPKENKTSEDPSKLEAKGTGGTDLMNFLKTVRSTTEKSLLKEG
Method: Enzymatic IC50 values were measured with the ascorbate/methylene blue reduction system[85] in presence of a non-ionic detergent to reduce compound aggregation as described before[28]. Kynurenine and L-Trp concentrations were determined by HPLC through UV detection.
Full-length human IDO1 gene was cloned into the pET-28a vector and expressed in E. coli Rosetta (DE3) cells. […] The culture was harvested and frozen at −80 °C until further use. The frozen cells were lysed by sonication in 20 mM Tris pH 7, 400 mM NaCl, 1 mM MgCl2, 20 mM imidazole, 1 mM DTT, 0.5 mg/mL Lysozyme and Protease inhibitor. After centrifugation, the supernatant was loaded into a HisTrap HP column pre-equilibrated with buffer containing 20 mM Tris pH 7, 500 mM NaCl and 20 mM imidazole, and eluted with the same buffer containing 500 mM imidazole. Fractions containing IDO1 were pooled, concentrated, and injected on a size exclusion chromatography column (HiLoad Superdex S75 16/60) to increase purity. hIDO1 fractions were concentrated to 20 mg/mL in 20 mM Tris pH 7 and 150 mM NaCl.
The enzymatic inhibition assays were performed as described by Takikawa et al.[130] with some modifications. Briefly, the reaction mixture (100 µL) contained potassium phosphate buffer (100 mM, pH 6.5) ascorbic acid (20 mM), catalase (400 units/mL), methylene blue (10 µM), purified recombinant IDO1 (2.5 ng/µL), L-Trp (100 µM), Triton X-100 (0.01%) and DMSO (5 µL). The inhibitors were serially diluted 3-fold for at least 8 different concentrations. After incubation at room temperature for 20 min, the reaction was stopped in its linear phase by addition of trichloroacetic acid solution (40 mL, 30% w/v), and the samples were incubated at 50 °C for 30 min. After centrifugation, 80 µl of supernatant from each well were used for HPLC analysis. The mobile phase for HPLC analysis was composed of 50% (v/v) of methanol and 50% of sodium citrate buffer (40 mM, pH 2.4) containing 400 µM sodium dodecyl sulphate. […] All assays were carried out in duplicates. The activity (Act) of each compound was calculated as Act = RT log(IC50) in analogy to the relation between the binding free energy and the Ki value. The ligand efficiency (LE) was calculated as LE = −Act/NHA, where NHA is the number of non-hydrogen atoms (heavy atoms) in the compound.

T1 sequence (P14902 whole entry): as above

For O=C(c1ccc(F)cc1)c1cnn[nH]1 [Compound 110, (4-Fluorophenyl)(1H-1,2,3-triazol-5-yl)methanone], which inhibition at 200 µM (hIDO1) is on record?
The inhibition at 200 µM was 12%.

What about the “Tox. [%]” value (HEK 293 T cells) of the same compound?
The value was 0 (0) %.

What about the IC50 [1] of the same compound?
Its IC50 is 185 µM and 190 µM.

What about the “LE [kcal/mol/HA]” value [1] of the same compound?
The value was 0.36 kcal/mol/HA.

How did the inhibition at 200 µM (hIDO1) turn out when O=C(c1cscn1)c1cnn[nH]1 [Compound 118, Thiazol-4-yl(1H-1,2,3-triazol-5-yl)methanone] was run?
Its inhibition at 200 µM is 17%.

And the “Tox. [%]” value (HEK 293 T cells)?
Its value is 0 (0) %.

And the IC50 [1]?
The IC50 was 81 µM and 82 µM.

What about the “LE [kcal/mol/HA]” value [1] of the same compound?
Its value is 0.46 kcal/mol/HA.

For Clc1ccc(-c2c[nH]nn2)cc1Cl [Compound 49, 4–(3,4-Dichlorophenyl)-1,2,3-triazole], which inhibition at 200 µM (hIDO1) is on record?
The inhibition at 200 µM was 65%.

And the “Tox. [%]” value (HEK 293 T cells)?
The value was 0 (0) %.

What about the IC50 [1] of the same compound?
Its IC50 is 51 µM.

What about the “LE [kcal/mol/HA]” value [1] of the same compound?
Its value is 0.45 kcal/mol/HA.

Which results are given for O=C(c1ccc(Cl)cc1)c1cnn[nH]1 [Compound 102, (4-Chlorophenyl)(1H-1,2,3-triazol-5-yl)methanone]?
inhibition at 200 µM (hIDO1): 37%; Tox. [%] (HEK 293 T cells): 0 (0) %; IC50 [1]: 31 µM; LE [kcal/mol/HA] [1]: 0.44 kcal/mol/HA

Which inhibition at 200 µM (hIDO1) does the source give for CC(=O)Nc1ccc(Cl)cc1-c1nc[nH]n1 [Compound 146, N-(4-Chloro-2-(1H-1,2,4-triazol-3-yl)phenyl)acetamide] here?
The inhibition at 200 µM was 89%.

And the “Tox. [%]” value (HEK 293 T cells)?
Its value is 0 (0) %.

What about the IC50 [1] of the same compound?
The IC50 was 425 µM and 420 µM.

What about the “LE [kcal/mol/HA]” value [1] of the same compound?
Its value is 0.29 kcal/mol/HA.

How did the inhibition at 200 µM (hIDO1) turn out when O=C(c1cnn[nH]1)c1ccccc1O [Compound 106, (2-Hydroxyphenyl)(1H-1,2,3-triazol-5-yl)methanone] was run?
The inhibition at 200 µM was 12%.

What about the “Tox. [%]” value (HEK 293 T cells) of the same compound?
Its value is 0 (0) %.

And the IC50 [1]?
The IC50 was 125 µM and 130 µM.

And the “LE [kcal/mol/HA]” value [1]?
Its value is 0.38 kcal/mol/HA.

Nc1c(Cl)cccc1-c1nc[nH]n1 [Compound 141, 2-Chloro-6-(1H-1,2,4-triazol-3-yl)aniline] was tested. Which inhibition at 200 µM (hIDO1) did it give?
Its inhibition at 200 µM is 82%.

What about the “Tox. [%]” value (HEK 293 T cells) of the same compound?
Its value is 13 (4) %.

And the IC50 [1]?
Its IC50 is 29 µM.

And the “LE [kcal/mol/HA]” value [1]?
Its value is 0.48 kcal/mol/HA.

With O=C(c1cnn[nH]1)c1cccs1 [Compound 116, Thiophen-2-yl(1H-1,2,3-triazol-5-yl)methanone] as the compound, how does the inhibition at 200 µM (hIDO1) read?
The inhibition at 200 µM was 62%.

And the “Tox. [%]” value (HEK 293 T cells)?
Its value is 0 (0) %.

What about the IC50 [1] of the same compound?
The IC50 was 17 µM.

And the “LE [kcal/mol/HA]” value [1]?
Its value is 0.54 kcal/mol/HA.

Which IC50 [1] does the source give for COc1cccc(C(=O)c2cnn[nH]2)c1 [Compound 104, (3-Methoxyphenyl)(1H-1,2,3-triazol-5-yl)methanone] here?
Its IC50 is 990 µM.

What about the “LE [kcal/mol/HA]” value [1] of the same compound?
Its value is 0.28 kcal/mol/HA.

How did the inhibition at 200 µM (hIDO1) turn out when COc1ccc(C(=O)c2cnn[nH]2)cc1 [Compound 105, (4-Methoxyphenyl)(1H-1,2,3-triazol-5-yl)methanone] was run?
The inhibition at 200 µM was 22%.

What about the “Tox. [%]” value (HEK 293 T cells) of the same compound?
Its value is 0 (0) %.

What about the IC50 [1] of the same compound?
Its IC50 is 200 µM.

And the “LE [kcal/mol/HA]” value [1]?
Its value is 0.34 kcal/mol/HA.

With c1ccc(COc2ccccc2-c2c[nH]nn2)cc1 [Compound 25, 4–(2-Benzyloxyphenyl)-1,2,3-triazole] as the compound, how does the IC50 [1] read?
The IC50 was greater than 500 µM.

Which results are given for O=C(c1cnn[nH]1)c1ccc(Cl)cc1O [Compound 112, (4-Chloro-2-hydroxyphenyl)(1H-1,2,3-triazol-5-yl)methanone]?
inhibition at 200 µM (hIDO1): 32%; Tox. [%] (HEK 293 T cells): 0 (0) %; IC50 [1]: 11 µM; LE [kcal/mol/HA] [1]: 0.45 kcal/mol/HA

With CC(C)c1cccc(-c2c[nH]nn2)c1 [Compound 23, 4–(3-Isopropylphenyl)-1,2,3-triazole] as the compound, how does the IC50 [1] read?
The IC50 was 280 µM.

What about the “LE [kcal/mol/HA]” value [1] of the same compound?
The value was 0.35 kcal/mol/HA.

For O=C(c1ccccc1)c1cnn[nH]1 [Compound 99, Phenyl(1H-1,2,3-triazol-5-yl)methanone], which IC50 [1] is on record?
Its IC50 is 430 µM.

And the “LE [kcal/mol/HA]” value [1]?
The value was 0.35 kcal/mol/HA.

For c1ccc2c(c1)Cc1n[nH]nc1-2 [Compound 89, 3,8-Dihydroindeno[1,2-d][1,2,3]triazole], which IC50 [1] is on record?
The IC50 was greater than 1000 µM.

With Brc1cccc(-c2nc[nH]n2)c1 [Compound 135, 3–(3-Bromophenyl)-1H-1,2,4-triazole] as the compound, how does the IC50 [1] read?
Its IC50 is 16 µM.

And the “LE [kcal/mol/HA]” value [1]?
The value was 0.55 kcal/mol/HA.

With O=C(c1cccc(O)c1)c1cnn[nH]1 [Compound 107, (3-Hydroxyphenyl)(1H-1,2,3-triazol-5-yl)methanone] as the compound, how does the IC50 [1] read?
Its IC50 is greater than 1000 µM.

Which IC50 [1] does the source give for NCc1nn[nH]c1C(=O)c1ccc(Br)cc1 [Compound 126, (4-(Aminomethyl)-1H-1,2,3-triazol-5-yl)(4-bromophenyl)methanone] here?
Its IC50 is greater than 1000 µM.

What does the source list for Clc1ccc(-c2c[nH]nn2)c(Cl)c1 [Compound 48, 4–(2,4-Dichlorophenyl)-1,2,3-triazole]?
inhibition at 200 µM (hIDO1): 63%; Tox. [%] (HEK 293 T cells): 0 (0) %; IC50 [1]: 31 µM; LE [kcal/mol/HA] [1]: 0.47 kcal/mol/HA
